Data as given in ChEMBL document CHEMBL4715719, “Synthesis and biological properties of polyamine modified flavonoids as hepatocellular carcinoma inhibitors” (Eur J Med Chem, 2016).
pIC50: −log10 of the molar value. Calls of active or inactive are those of the source. No cut-off for these calls is given here.

Assays:
[1] = Toxicity in Kunming mouse implanted with mouse H22 cells assessed as change in body weight at 10 mg/kg, iv administered for 7 consecutive days starting from day 11 post inoculation cotreated with aspirin at 10 mg/kg and measured after 18 days (reference value: -1.2 %); assay type: organism-based; conditions: in vivo, 192 h, time 8 day
HepG2 [2] = assay: Antiproliferative activity against human HepG2 cells assessed as inhibition of cell proliferation at 30 uM measured after 48 hrs by MTT assay relative to control; assay type: functional
H22 [3] = assay: Antitumor activity against mouse H22 cells implanted in Kunming mouse assessed as tumor growth inhibition at 10 mg/kg, iv administered for 7 consecutive days starting from day 8 post inoculation and measured after 16 days relative to control; assay type: functional; conditions: 192 h, time 8 day, read-out: TGI
HepG2 [4] = assay: Induction of apoptosis in human HepG2 cells assessed as upregulation of phosphorylated p38 at 50 to 70 uM measured after 48 hrs by immunofluorescence assay; assay type: functional, cell-based; conditions: dose 50-70 µM
[5] = Antiproliferative activity against mouse H22 cells assessed as inhibition of cell proliferation measured after 48 hrs in presence of 800 uM aspirin by MTT assay; assay type: functional, cell-based
HepG2 [6] = assay: Induction of ROS generation in human HepG2 cells after 48 hrs by DCFH-DA staining based assay; assay type: functional, cell-based; conditions: dose 50-70 µM
HepG2 [7] = assay: Antimigratory activity against human HepG2 cells assessed as inhibition of cell migration at 50 to 70 uM in presence of aspirin measured after 48 hrs by transwell assay; assay type: functional, cell-based; conditions: dose 50-70 µM
H22 [8] = assay: Antitumor activity against mouse H22 cells implanted in Kunming mouse assessed as reduction in tumor weight at 10 mg/kg, iv administered for 7 consecutive days starting from day 8 post inoculation and measured after 16 days (reference value: 2.15 +/- 0.51 g); assay type: functional; conditions: time 8 day
HepG2 [9] = assay: Induction of mitochondrial membrane potential loss in human HepG2 cells after 48 hrs by Rh123 staining based assay; assay type: functional, cell-based; conditions: dose 50-70 µM
[10] = Cytotoxicity against human QSG7701 cells assessed as inhibition of cell proliferation at 100 uM measured after 48 hrs by MTT assay relative to control; assay type: cell-based
HepG2 [11] = assay: Induction of lysosomal impairment in human HepG2 cells after 48 hrs by Lyso-tracker Red staining based assay; assay type: functional, cell-based; conditions: dose 50-70 µM
[12] = Toxicity in Kunming mouse implanted with mouse H22 cells assessed as change in mouse body weight at 10 mg/kg, iv administered for 7 consecutive days starting from day 8 post inoculation cotreated with aspirin at 10 mg/kg and measured after 16 days (reference value: 16.7 %); assay type: organism-based; conditions: in vivo, 192 h, time 8 day
[13] = Cytotoxicity against human QSG7701 cells assessed as inhibition of cell proliferation at 30 uM measured after 48 hrs by MTT assay relative to control; assay type: cell-based
H22 [14] = assay: Potentiation of aspirin-induced antimetastatic activity against mouse H22 cells implanted in Kunming mouse assessed as number of metastatic focus at 10 mg/kg, iv administered for 7 consecutive days starting from day 11 post inoculation cotreated with aspirin at 10 mg/kg and measured after 18 days (reference value: 43.6 +/- 13); assay type: functional; conditions: time 8 day
Mus musculus [15] = assay: Upregulation of phosphorylated p38 in Kunming mouse implanted with mouse H22 cells assessed as activation of p53 measured after 48 hrs by immunofluorescence analysis; assay type: functional; conditions: dose 10-30 µM
H22 [16] = assay: Potentiation of DFMO-induced antitumor activity against mouse H22 cells implanted in Kunming mouse assessed as reduction in tumor weight at 10 mg/kg, iv administered for 7 consecutive days starting from day 8 post inoculation cotreated with DFMO at 200 mg/kg and measured after 16 days (reference value: 1.31 +/- 0.33 g); assay type: functional; conditions: time 8 day
[17] = Toxicity in iv dosed Kunming mouse assessed as maximum tolerated dose; assay type: organism-based; conditions: in vivo
[18] = Toxicity in Kunming mouse implanted with mouse H22 cells assessed as mouse mortality at 10 mg/kg, iv administered for 7 consecutive days starting from day 8 post inoculation cotreated with aspirin at 10 mg/kg and measured after 16 days; assay type: organism-based; conditions: in vivo, 192 h, time 8 day
[19] = Toxicity in Kunming mouse implanted with mouse H22 cells assessed as change in body weight at 10 mg/kg, iv administered for 7 consecutive days starting from day 11 post inoculation cotreated with DFMO at 200 mg/kg and measured after 18 days (reference value: -0.3 %); assay type: organism-based; conditions: in vivo, 192 h, time 8 day
HepG2 [20] = assay: Antimigratory activity against human HepG2 cells assessed as inhibition of cell migration measured after 48 hrs by transwell assay; assay type: functional, cell-based; conditions: dose 50-70 µM
Mus musculus [21] = assay: Upregulation of phosphorylated p38 in Kunming mouse implanted with mouse H22 cells assessed as activation of p53 measured after 48 hrs in presence of aspirin by immunofluorescence analysis; assay type: functional; conditions: dose 10-30 µM
H22 [22] = assay: Potentiation of aspirin-induced antitumor activity against mouse H22 cells implanted in Kunming mouse assessed as reduction in tumor weight at 10 mg/kg, iv administered for 7 consecutive days starting from day 8 post inoculation cotreated with aspirin at 10 mg/kg and measured after 16 days (reference value: 1.37 +/- 0.60 g); assay type: functional; conditions: time 8 day
SMMC-7721 = assay: Antiproliferative activity against human […] cells assessed as inhibition of cell proliferation at 100 uM measured after 48 hrs by MTT assay relative to control; assay type: functional
HepG2 [23] = assay: Induction of apoptosis in human HepG2 cells after 48 hrs by AO/EB staining based assay; assay type: functional, cell-based; conditions: dose 50-70 µM
[24] = Toxicity in Kunming mouse implanted with mouse H22 cells assessed as mouse mortality during lug metastasis assay at 10 mg/kg, iv administered for 7 consecutive days starting from day 8 post inoculation and measured after 16 days; assay type: organism-based; conditions: in vivo, 192 h, time 8 day
H22 [25] = assay: Potentiation of DFMO-induced antimetastatic activity against mouse H22 cells implanted in Kunming mouse assessed as number of metastatic focus at 10 mg/kg, iv administered for 7 consecutive days starting from day 11 post inoculation cotreated with DFMO at 200 mg/kg and measured after 18 days (reference value: 35.1 +/- 12); assay type: functional; conditions: time 8 day
[26] = Toxicity in Kunming mouse implanted with mouse H22 cells assessed as change in mouse body weight at 10 mg/kg, iv administered for 7 consecutive days starting from day 8 post inoculation cotreated with DFMO at 200 mg/kg and measured after 16 days (reference value: 16.2 %); assay type: organism-based; conditions: in vivo, 192 h, time 8 day
HepG2 [27] = assay: Induction of apoptosis in human HepG2 cells assessed as activation of caspase 9 at 50 to 70 uM measured after 48 hrs by immunofluorescence assay; assay type: functional, cell-based; conditions: dose 50-70 µM
H22 [28] = assay: Potentiation of aspirin-induced antitumor activity against mouse H22 cells implanted in Kunming mouse assessed as tumor growth inhibition at 10 mg/kg, iv administered for 7 consecutive days starting from day 8 post inoculation cotreated with aspirin at 10 mg/kg and measured after 16 days (reference value: 36 %); assay type: functional; conditions: 192 h, time 8 day, read-out: TGI
H22 [29] = assay: Potentiation of DFMO-induced antimetastatic activity against mouse H22 cells implanted in Kunming mouse assessed as inhibition of metastasis at 10 mg/kg, iv administered for 7 consecutive days starting from day 11 post inoculation cotreated with DFMO at 200 mg/kg and measured after 18 days relative to control; assay type: functional; conditions: 192 h, time 8 day
HepG2 [30] = assay: Antiinvasive activity against human HepG2 cells assessed as inhibition of cell invasion measured after 48 hrs by wound healing assay; assay type: functional, cell-based; conditions: dose 50-70 µM
H22 [31] = assay: Potentiation of DFMO-induced antitumor activity against mouse H22 cells implanted in Kunming mouse assessed as tumor growth inhibition at 10 mg/kg, iv administered for 7 consecutive days starting from day 8 post inoculation cotreated with DFMO at 200 mg/kg and measured after 16 days (reference value: 38.8 %); assay type: functional; conditions: 192 h, time 8 day, read-out: TGI

Q: What does the source list for Cl.Cl.NCCCNCC(=O)NCc1cccc2c(=O)cc(-c3cccc4ccccc34)oc12?
A: Activity [1]: 4.3%; inhibition at 30 µM (HepG2 [2]): 7.9%; inhibition in vivo at 10 mg/kg (H22 [3]): 39.2%; Activity (HepG2 [4]): Active; pIC50 [5]: 4.68; Activity (HepG2 [6]): Dose-dependent effect; inhibition (HepG2 [7]): Active; Activity (H22 [8]): 1.3 g; Activity (HepG2 [9]): Dose-dependent effect; inhibition at 48 h, 100 µM [10]: 41.8%; Activity (HepG2 [11]): Dose-dependent effect; Activity [12]: 19.4%; inhibition at 48 h, 30 µM [13]: < 5%; Activity (H22 [14]): 23; Activity (Mus musculus [15]): Dose-dependent effect; Activity (H22 [16]): 1.22 g; MTD [17]: 20 mg/kg; Activity [18]: Non-Toxic; Activity [19]: 1.2%; inhibition (HepG2 [20]): Dose-dependent effect; Activity (Mus musculus [21]): Active; Activity (H22 [22]): 0.66 g; inhibition at 100 µM (SMMC-7721): 87.1%; Activity (HepG2 [23]): Dose-dependent effect; Activity [24]: Non-Toxic; Activity (H22 [25]): 29.3; Activity [26]: 16.7%; Activity (HepG2 [27]): inactive; inhibition in vivo at 10 mg/kg (H22 [28]): 69.2%; inhibition in vivo at 10 mg/kg (H22 [29]): 48.9%; inhibition (HepG2 [30]): Dose-dependent effect; inhibition in vivo at 10 mg/kg (H22 [31]): 43%
